Key:
Wistar rats = experiment: Novel object recognition test, subchronic PCP-induced cognitive impairment; format: in vivo, rat; conditions: PCP 5 mg/kg twice daily for 7 days IP
Experimental: The total exploration time of two identical objects in the acquisition trial was measured manually and indicated as the mean±SEM (n=10). No statistical difference was found in the total exploration time among the different groups by one-way ANOVA (P=0.340).
(§1) NDI was calculated using the following equation: novel object interaction time/total interaction time×100(%). Data are represented as the mean±SEM (n=10). Significant difference from control group was indicated by ***P<0.001 (Student's t-test). Significant differences from PCP-treated group were indicated by ##P<0.01, #P<0.05 (Dunnett test). Significant difference from PCP-treated group were indicated by ††P<0.01 (Student's t-test).
Exploration time of each object in retention trial was measured manually and presented as the mean±SEM (n=10). Significant differences from familiar object interaction were indicated by ***P<0.001, **P<0.01 (paired t-test).
A novel object recognition test was conducted to investigate the effect of SP-624 on subchronic PCP-induced cognitive impairment in Wistar rats. Clozapine was used as a positive control.

Long-Evans rats = experiment: Novel object recognition test, scopolamine-induced cognitive impairment; format: in vivo, rat; conditions: scopolamine 0.1 mg/kg SC
Experimental: Total exploration time of two identical objects in the acquisition trial was measured manually and indicated as the mean±SEM (n=8). No statistical difference was found in the total exploration time among the different groups by one-way ANOVA (P=0.115).
as §1, with “(n=8).” for “(n=10).”, “scopolamine-treated vehicle” for “PCP-treated”, “##P<0.01” for “##P<0.01, #P<0.05”, “†††P<0.001” for “††P<0.01”
Exploration time of each object in retention trial was measured manually and presented as the mean±SEM (n=8). Significant differences from familiar object interaction were indicated by **P<0.01, *P<0.05 (paired t-test).
A novel object recognition test (which evaluates visual learning and memory) was conducted to investigate the effect of compound 1 on scopolamine-induced cognitive impairment in Long-Evans rats. Donepezil was used as a positive control. Scopolamine at 0.1 mg/kg SC reduced the novelty discrimination index (NDI) a measure of cognitive function (FIGS. 4-6).

SMILES | NDI compared with sub-chronic vehicle treatment (Wistar rats) | novelty discrimination index (NDI) (Long-Evans rats)
c1ccc(C2(N3CCCCC3)CCCCC2)cc1 [PCP, reference compound] | significantly decreased | 
CN1[C@@H]2C[C@@H](OC(=O)[C@H](CO)c3ccccc3)C[C@H]1[C@@H]1O[C@@H]12 [Scopolamine, reference compound] |  | reduced

Reference: patent US20260034103A1, “COMPOSITIONS AND METHODS FOR IMPROVING MEMORY AND COGNITION” (priority 2022, published 2026)
